System: MCH receptors
Experiment: MCH receptor activity class (method not given)
[1] = class by percent of control at 10^-7 M or IC50
[2] = MCH receptor, class by percent of control at 10^-7 M or IC50

SMILES	class [1]	also measured
Cc1cnc(N[C@H]2CC[C@@H](CNC(=O)c3cccnc3Oc3cccc(F)c3)C2)nc1N(C)C [compound 3017]		class (class by percent of control at 10^−7 M or IC50): 3 (Class 3 The value of percent of control at 10^−7 M was more than 60% or the value of IC50 was more than 200 nM.)
COc1ccc(Br)cc1CNC[C@H]1CC[C@@H](Nc2cc(N(C)C)c3ccccc3n2)CC1 [compound 1145]		class (activity class per percent of control at 10^-7 M or IC50): 3 (Class 3 The value of percent of control at 10^−7 M was more than 60% or the value of IC50 was more than 200 nM.)
C=C(C)c1cccc(C(C)(C)NC(=O)N[C@H]2CC[C@@H](Nc3nccc(N(C)C)n3)CC2)c1 [compound 2218]	3 (Class 3 The value of percent of control at 10^−7 M was more than 60% or the value of IC50 was more than 200 nM.)	
CN(C)c1nc(N[C@H]2CC[C@@H](CNC(=O)c3c(F)cccc3C(F)(F)F)CC2)nc2c1CCCC2 [compound 665]	3 (Class 3 The value of percent of control at 10^−7 M was more than 60% or the value of IC50 was more than 200 nM.)	
CN(C)c1ccnc(N[C@H]2CC[C@@H](CNC(=O)NCc3ccccc3Cl)CC2)n1 [compound 2421]		class (MCH receptor activity class 1-3 (percent of control at 10^-7 M or IC50)): 3 (Class 3 The value of percent of control at 10^−7 M was more than 60% or the value of IC50 was more than 200 nM.)
CN(C)c1nc(N[C@H]2CC[C@@H](NC(=S)Nc3c(F)cc(Br)cc3Br)CC2)nc2c1CCCC2 [compound 1780, N-(2,4-dibromo-6-fluorophenyl)-N′-(cis-4-{[4-(dimethylamino)-5,6,7,8-tetrahydroquinazolin-2-yl]amino}cyclohexyl)thiourea]	2 (Class 2: The value of percent of control at 10^−7 M was from 40% to 60% or the value of IC′50 was from 50 nM to 200 nM.)	
CN(C)c1ccnc(N[C@H]2CC[C@@H](CNC(=O)c3ccccc3Cc3ccccc3)CC2)n1 [compound 936]	2 (Class 2: The value of percent of control at 10^−7 M was from 40% to 60% or the value of IC′50 was from 50 nM to 200 nM.)	
CN(C)c1ccnc(N[C@H]2CC[C@@H](NC(=O)c3cnc4ccccc4n3)CC2)n1 [compound 332]	1 (Class 1: The value of percent of control at 10^−7 M was less than 40% or the value of IC50 was less than 50 nM.)	
COc1cc(CNC[C@H]2CC[C@@H](Nc3nc4c(c(N(C)C)n3)CCCC4)CC2)cc2c1OCO2 [compound 1430]	2 (Class 2: The value of percent of control at 10^−7 M was from 40% to 60% or the value of IC′50 was from 50 nM to 200 nM.)	
Cc1ccc(NC(=S)N[C@H]2CC[C@@H](Nc3nc4c(c(N(C)C)n3)CCCC4)CC2)cc1 [compound 1959]		class [2]: 3 (Class 3 The value of percent of control at 10^−7 M was more than 60% or the value of IC50 was more than 200 nM.)
CN(C)c1ccnc(N[C@H]2CC[C@@H](NC(=O)CCCOc3ccccc3)CC2)n1 [compound 338]	3 (Class 3 The value of percent of control at 10^−7 M was more than 60% or the value of IC50 was more than 200 nM.)	
Cc1cccc(C)c1NC(=O)N[C@H]1CC[C@@H](Nc2cc(N(C)C)c3ccccc3n2)CC1 [compound 2090]	3 (Class 3 The value of percent of control at 10^−7 M was more than 60% or the value of IC50 was more than 200 nM.)	
COc1cc2ccccc2cc1CN[C@H]1CC[C@@H](Nc2nccc(N(C)C)n2)CC1 [compound 1522]		class (activity class 1-3: percent of control at 10^-7 M or IC50): 3 (Class 3 The value of percent of control at 10^−7 M was more than 60% or the value of IC50 was more than 200 nM.)
CN(C)c1nc(N[C@H]2CC[C@@H](NC(=O)NCCc3cccs3)CC2)nc2c1CCCC2 [compound 1914]		class [2]: 3 (Class 3 The value of percent of control at 10^−7 M was more than 60% or the value of IC50 was more than 200 nM.)
COC(=O)c1ccc(NC(=O)N[C@H]2CC[C@@H](Nc3nc4c(c(N(C)C)n3)CCCC4)CC2)cc1 [compound 1908]		class [2]: 3 (Class 3 The value of percent of control at 10^−7 M was more than 60% or the value of IC50 was more than 200 nM.)
CN(C)c1ccnc(N[C@H]2CC[C@@H](NC(=O)c3cccc(Br)c3)CC2)n1 [compound 239]	1 (Class 1: The value of percent of control at 10^−7 M was less than 40% or the value of IC50 was less than 50 nM.)	
